From patent US6855843B2, “Inhibitors of α4 mediated cell adhesion” (Tanabe Seiyaku Co., Ltd., priority 1998, dated 2005)

Tests used:
[1] = biological target: T1, α4β7 (adhesion of RPMI cells to CS-1) (Homo sapiens, UniProt P13612+P26010); test: RPMI-CS-1 cell adhesion assay; assay type: cell-based; details: adhesion of RPMI B-cell line (expresses α4β7) to CS-1 peptide coated microwells; read-out: RPMI-CS-1 IC50 value range
T1 construct: endogenous in cells
T1 sequence (P13612 34-1032): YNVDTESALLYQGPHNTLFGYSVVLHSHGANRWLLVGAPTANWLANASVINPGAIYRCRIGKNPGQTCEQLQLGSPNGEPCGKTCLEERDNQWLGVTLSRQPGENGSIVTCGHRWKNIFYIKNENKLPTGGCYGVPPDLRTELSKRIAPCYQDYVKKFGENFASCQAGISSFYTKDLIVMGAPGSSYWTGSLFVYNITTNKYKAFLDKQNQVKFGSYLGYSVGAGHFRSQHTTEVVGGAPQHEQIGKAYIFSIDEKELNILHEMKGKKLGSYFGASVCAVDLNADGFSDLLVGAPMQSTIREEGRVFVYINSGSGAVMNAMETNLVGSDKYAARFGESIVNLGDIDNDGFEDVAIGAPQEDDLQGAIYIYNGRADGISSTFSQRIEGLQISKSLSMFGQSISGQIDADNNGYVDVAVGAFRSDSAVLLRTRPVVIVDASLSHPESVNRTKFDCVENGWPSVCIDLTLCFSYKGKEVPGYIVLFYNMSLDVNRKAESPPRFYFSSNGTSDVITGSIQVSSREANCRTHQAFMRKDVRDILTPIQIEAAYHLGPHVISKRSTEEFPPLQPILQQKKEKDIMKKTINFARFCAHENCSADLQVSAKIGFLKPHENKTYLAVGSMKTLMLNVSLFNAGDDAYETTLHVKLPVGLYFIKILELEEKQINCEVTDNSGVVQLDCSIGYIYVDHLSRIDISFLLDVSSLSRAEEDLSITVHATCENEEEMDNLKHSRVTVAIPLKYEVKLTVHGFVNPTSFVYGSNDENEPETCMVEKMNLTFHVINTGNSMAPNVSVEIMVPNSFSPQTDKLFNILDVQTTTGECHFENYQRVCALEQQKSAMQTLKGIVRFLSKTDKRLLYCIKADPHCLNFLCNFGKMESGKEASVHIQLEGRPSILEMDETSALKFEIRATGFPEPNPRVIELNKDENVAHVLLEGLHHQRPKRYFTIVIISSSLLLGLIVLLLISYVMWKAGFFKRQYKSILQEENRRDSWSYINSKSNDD
T1 sequence (P26010 20-798): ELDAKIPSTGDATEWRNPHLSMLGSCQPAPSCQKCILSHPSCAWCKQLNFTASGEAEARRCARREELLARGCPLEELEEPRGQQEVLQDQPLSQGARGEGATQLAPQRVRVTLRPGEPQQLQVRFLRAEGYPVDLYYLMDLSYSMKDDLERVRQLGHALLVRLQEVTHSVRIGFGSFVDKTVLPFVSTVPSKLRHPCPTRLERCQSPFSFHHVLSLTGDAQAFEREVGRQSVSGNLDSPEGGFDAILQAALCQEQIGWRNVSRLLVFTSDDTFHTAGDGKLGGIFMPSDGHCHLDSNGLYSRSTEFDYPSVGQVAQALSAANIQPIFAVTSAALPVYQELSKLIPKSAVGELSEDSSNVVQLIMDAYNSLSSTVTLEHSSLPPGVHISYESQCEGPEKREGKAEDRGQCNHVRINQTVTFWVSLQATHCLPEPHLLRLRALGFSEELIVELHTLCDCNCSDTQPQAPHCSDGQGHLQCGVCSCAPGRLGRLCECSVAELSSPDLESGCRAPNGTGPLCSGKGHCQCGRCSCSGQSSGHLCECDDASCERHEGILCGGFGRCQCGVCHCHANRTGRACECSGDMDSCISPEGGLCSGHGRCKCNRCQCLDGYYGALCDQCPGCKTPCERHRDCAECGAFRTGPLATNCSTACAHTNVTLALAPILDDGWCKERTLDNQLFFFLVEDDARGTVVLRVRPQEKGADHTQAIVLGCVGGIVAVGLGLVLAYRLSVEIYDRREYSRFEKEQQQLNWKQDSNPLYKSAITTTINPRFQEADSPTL

| Structure (SMILES) | melting point | IC50 [1] [nM] |
| --- | --- | --- |
| COc1cccc(OC)c1-c1ccc(C[C@H](NC(=O)c2c(Cl)cc(N)cc2Cl)C(=O)O)cc1 [Example 206, N-(4-Amino-2,6-dichlorobenzoyl)-4-(2,6-dimethoxyphenyl)-L-phenylalanine] | 221 to 222 °C (dec.) | < 300 |
| N#CCOc1cccc(OCC#N)c1-c1ccc(C[C@H](NC(=O)c2c(Cl)cccc2Cl)C(=O)O)cc1 [Example 231] | 175 to 176 °C | < 300 |
| COc1cccc(OC)c1-c1ccc(C[C@H](NC(=O)c2c(Cl)cc(O)cc2Cl)C(=O)O)cc1 [Example 208] | 252 to 253 °C | < 300 |
| C=CCN(C(=O)OC(C)(C)C)c1cc(OC)c(-c2ccc(C[C@H](NC(=O)c3c(Cl)cccc3Cl)C(=O)O)cc2)c(OC)c1 [Example 155, N-(2,6-Dichlorobenzoyl)-4-[4-(N-allyl-N-tert-butoxycarbonylamino)-2,6-dimethoxyphenyl]-L-phenylalanine] | 138 to 139 °C | < 300 |
| COc1ccccc1-c1cccc(CC(NC(=O)c2c(Cl)cccc2Cl)C(=O)O)c1 (racemic) [Example 6, N-(2,6-Dichlorobenzoyl)-3-[2-methoxyphenyl)-DL-phenylalanine] | 104 °C | > 5000 |
| CCOC(=O)[C@H](Cc1ccc(-c2c(OC)cc(CN3CCCCC3)cc2OC)cc1)NC(=O)c1c(F)cccc1F [Example 354] | 150 °C | < 300 |
| COc1cccc(OC)c1-c1ccc(C[C@H](NC(=O)c2c(Cl)cccc2Cl)C(=O)O)s1 [Example 294, N-(2,6-Dichlorobenzoyl)-3-[5-(2,6-dimethoxyphenyl)-2-thienyl]-L-alanine] | 134 °C (dec.) | 1000 to 5000 |
| COc1cc(NC(=O)Nc2ccccc2C)cc(OC)c1-c1ccc(C[C@H](NC(=O)c2c(Cl)cccc2Cl)C(=O)O)cc1 [Example 161, N-(2,6-Dichlorobenzoyl)-4-[4-[3-(2-methylphenyl)ureido]-2,6-dimethoxyphenyl]-L-phenylalanine] | 194 to 195 °C | < 300 |

More lines, now with the values ahead:

| melting point | IC50 [1] [nM] | Structure (SMILES) |
| --- | --- | --- |
| 221 to 222 °C | < 300 | COc1cc(N)cc(OC)c1-c1ccc(C[C@H](NC(=O)c2c(Cl)cccc2Cl)C(=O)O)cc1 [Example 157, N-(2,6-Dichlorobenzoyl)-4-(4-amino-2,6-dimethoxyphenyl)-L-phenylalanine] |
| 164 to 165 °C | < 300 | COc1ccc(O)c(OC)c1-c1ccc(C[C@H](NC(=O)c2c(Cl)cccc2Cl)C(=O)O)cc1 [Example 175, N-(2,6-Dichlorobenzoyl)-4-(2,6-dimethoxy-3-hydroxyphenyl)-L-phenylalanine] |
| 195 °C | 1000 to 5000 | COc1ccccc1-c1ccc(C[C@@H](NC(=O)c2c(Cl)cccc2Cl)C(=O)O)cc1 [Example 5, N-(2,6-Dichlorobenzoyl)-4-(2-methoxyphenyl)-D-phenylalanine] |
| 218 °C | < 300 | COc1ccc2c(c1-c1ccc(C[C@H](NC(=O)c3c(Cl)cccc3Cl)C(=O)O)cc1)OCCO2 [Example 241, N-(2,6-Dichlorobenzoyl)-4-(2,3-ethylenedioxy-6-methoxyphenyl)-L-phenylalanine] |
| 156 to 157 °C | < 300 | COCOc1ccc(OC)c(-c2ccc(C[C@H](NC(=O)c3c(Cl)cccc3Cl)C(=O)O)cc2)c1OC [Example 174, N-(2,6-Dichlorobenzoyl)-4-(2,6-dimethoxy-3-methoxymethoxyphenyl)-L-phenylalanine] |
| 219 to 221 °C | < 300 | COc1cc(C(=O)N(C)C)cc(OC)c1-c1ccc(C[C@H](NC(=O)c2c(Cl)cccc2Cl)C(=O)O)cc1 [Example 166] |
| 184 to 185 °C | < 300 | COc1cccc(OC)c1-c1ccc(C[C@H](NC(=O)c2c(Cl)cc(Br)cc2Cl)C(=O)O)cc1 [Example 207] |
| 233 to 234 °C | < 300 | COc1cc(C)cc(OC)c1-c1ccc(C[C@H](NC(=O)c2c(Cl)cccc2Cl)C(=O)O)cc1 [Example 148] |
